Assay [1] has as its target T1, MKNK1 (Homo sapiens, UniProt Q9BUB5, T385D).
T1 construct: GST (N); purchased Carna Biosciences 02-145; host or cells: insect cells (baculovirus expression system)
As to the kind of experiment: MKNK1 kinase assay (MKNK1 TR-FRET assay). Type of assay: biochemical. As to conditions: 10 μM ATP, 15 min preincubation. The source says: MKNK1-inhibitory activity of compounds of the present invention was quantified employing the MKNK1 TR-FRET assay as described in the following paragraphs.
A recombinant fusion protein of Glutathione-S-Transferase (GST, N-terminally) and human full-lengt MKNK1 (amino acids 1-424 and T344D of accession number BAA 19885.1), expressed in insect cells using baculovirus expression system and purified via glutathione sepharose affinity chromatography, was purchased from Carna Biosciences (product no 02-145) and used as enzyme. As substrate for the kinase reaction the biotinylated peptide biotin-Ahx-IKKRKLTRRKSLKG (C-terminus in amide form) was used which can be purchased e.g. form the company Biosyntan (Berlin-Buch, Germany).
For the assay 50 nL of a 100 fold concentrated solution of the test compound in DMSO was pipetted into a black low volume 384 well microtiter plate (Greiner Bio-One, Frickenhausen, Germany), 2 μL of a solution of MKNK1 in aqueous assay buffer [50 mM HEPES pH 7.5, 5 mM magnesium chloride, 1.0 mM dithiothreitol, 0.005% (v/v) Nonidet-P40 (Sigma)] was added and the mixture was incubated for 15 min at 22° C. to allow pre-binding of the test compounds to the enzyme before the start of the kinase reaction. […] The concentration of MKNK1 was adjusted depending of the activity of the enzyme lot and was chosen appropriate to have the assay in the linear range, typical concentrations were in the range of […]. The reaction was stopped by the addition of 5 μL of a solution of TR-FRET detection reagents (5 nM streptavidine-XL665 [Cisbio Bioassays, Codolet, France] and 1 nM anti-ribosomal protein S6 (pSer236)-antibody from Invitrogen [#44921G] and 1 nM LANCE EU-W1024 labeled ProteinG [Perkin-Elmer, product no. AD0071]) in an aqueous EDTA-solution (100 mM EDTA, 0.1% (w/v) bovine serum albumin in 50 mM HEPES pH 7.5).
(§1) The resulting mixture was incubated for 1 h at 22° C. to allow the formation of complex between the phosphorylated biotinylated peptide and the detection reagents. Subsequently the amount of phosphorylated substrate was evaluated by measurement of the resonance energy transfer from the Eu-chelate to the streptavidine-XL. Therefore, the fluorescence emissions at 620 nm and 665 nm after excitation at 350 nm were measured in a TR-FRET reader, e.g. a Rubystar (BMG Labtechnologies, Offenburg, Germany) or a Viewlux (Perkin-Elmer). The ratio of the emissions at 665 nm and at […] was taken as the measure for the amount of phosphorylated substrate. The data were normalised (enzyme reaction without inhibitor=0% inhibition, all other assay components but no enzyme=100% inhibition).

Assay [2] deals with T1, MKNK1. The assay is described as follows: MKNK1 kinase high ATP assay (TR-FRET-based). Type of assay: biochemical. Conditions: 2 mM ATP, 15 min preincubation. The procedure: MKNK1 Kinase High ATP Assay
MKNK1-inhibitory activity at high ATP of compounds of the present invention after their preincubation with MKNK1 was quantified employing the TR-FRET-based MKNK1 high ATP assay as described in the following paragraphs.
A recombinant fusion protein of Glutathione-S-Transferase (GST, N-terminally) and human full-length MKNK1 (amino acids 1-424 and T344D of accession number BAA 19885.1), expressed in insect cells using baculovirus expression system and purified via glutathione sepharose affinity chromatography, was purchased from Carna Biosciences (product no 02-145) and used as enzyme. As substrate for the kinase reaction the biotinylated peptide biotin-Ahx-IKKRKLTRRKSLKG (C-terminus in amide form) was used, which can be purchased e.g. from the company Biosyntan (Berlin-Buch, Germany).
For the assay 50 nL of a 100 fold concentrated solution of the test compound in DMSO was pipetted into a black low volume 384 well microtiter plate (Greiner Bio-One, Frickenhausen, Germany), 2 μL of a solution of MKNK1 in aqueous assay buffer [50 mM HEPES pH 7.5, 5 mM magnesium chloride, 1.0 mM dithiothreitol, 0.005% (v/v) Nonidet-P40 (Sigma)] was added and the mixture was incubated for 15 min at 22° C. to allow pre-binding of the test compounds to the enzyme before the start of the kinase reaction. Then the kinase reaction was started by the addition of 3 μL of a solution of adenosine-tri-phosphate (ATP, 3.3 mM=>final conc. in the 5 μL assay volume is 2 mM) and substrate (0.1 μM=>final conc. in the 5 μL assay volume is 0.06 μM) in assay buffer and the resulting mixture was incubated for a reaction time of 30 min at 22° C. The concentration of MKNK1 was adjusted depending of the activity of the enzyme lot and was chosen appropriate to have the assay in the linear range, typical concentrations were in the range of 0.003 μg/mL. The reaction was stopped by the addition of 5 μL of a solution of TR-FRET detection reagents (5 nM streptavidine-XL665 [Cisbio Bioassays, Codolet, France] and 1 nM anti-ribosomal protein S6 (pSer236)-antibody from Invitrogen [#44921G] and 1 nM LANCE EU-W1024 labeled ProteinG [Perkin-Elmer, product no. AD0071]) in an aqueous EDTA-solution (100 mM EDTA, 0.1% (w/v) bovine serum albumin in 50 mM HEPES pH 7.5).
as §1

T1 sequence (Q9BUB5 1-424 isoform Q9BUB5-2 T344D): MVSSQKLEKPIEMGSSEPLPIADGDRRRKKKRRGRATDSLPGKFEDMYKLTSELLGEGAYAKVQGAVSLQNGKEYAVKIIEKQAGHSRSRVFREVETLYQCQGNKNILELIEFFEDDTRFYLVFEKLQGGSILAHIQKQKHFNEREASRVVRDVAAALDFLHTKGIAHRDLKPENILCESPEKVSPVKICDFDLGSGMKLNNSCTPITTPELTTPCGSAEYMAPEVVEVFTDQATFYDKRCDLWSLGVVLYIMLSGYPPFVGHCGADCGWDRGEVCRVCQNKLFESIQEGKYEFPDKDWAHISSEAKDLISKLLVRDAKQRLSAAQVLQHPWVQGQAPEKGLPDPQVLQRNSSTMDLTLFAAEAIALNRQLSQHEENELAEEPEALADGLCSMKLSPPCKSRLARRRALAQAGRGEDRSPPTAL

As for `COC[C@H]1CCCN1c1cccc2oc(-c3cnc4ccc(OCCCS(C)(=O)=NC#N)nn34)cc12` (mixture of isomers) [II-25, [{3-[(3-{4-[2-(Methoxymethyl)pyrrolidin-1-yl]-1-benzofuran-2-yl}imidazo-[1,2-b]pyridazin-6-yl)oxy]propyl}(methyl)oxido-λ^6-sulfanylidene]cyanamide], the results for the IC50 in assay [1] (Table 1b) and in assay [2] (Table 2b) were 2.4 nM and 2.7 nM, respectively.

For the molecule `c1cc2oc(-c3cnc4ccc(OC[C@H]5CCCCN5)nn34)cc2c(N2CCOCC2)n1` (stereo in doubt) [III-140, 3-[4-(morpholin-4-yl)furo[3,2-c]pyridin-2-yl]-6-(piperidin-2-ylmeth-oxy)imidazo[1,2-b]pyridazine], the IC50 in assay [1] (Table 1c) turned out to be 80 nM; in assay [2] (Table 2c), 183 nM.

`O=C(C1CC1)N1CCC[C@H]1CCOc1ccc2ncc(-c3cc4ccccc4o3)n2n1` [Example I-1, [(2S)-2-(2-{[3-(1-Benzofuran-2-yl)imidazo[1,2-b]pyridazin-6-yl]oxy}ethyl)-pyrrolidin-1-yl](cyclopropyl)methanone]: the figures for the IC50 in assay [1] (Table 1a) and in assay [2] (Table 2a) were 1 nM and 2.3 nM, respectively.

On to `CC(=O)N1CCC[C@H]1CCOc1ccc2ncc(-c3cc4ccccc4o3)n2n1` [Example I-2, 1-[(2S)-2-(2-{[3-(1-Benzofuran-2-yl)imidazo[1,2-b]pyridazin-6-yl]oxy}ethyl)-pyrrolidin-1-yl]ethanone], for which the IC50 came out at 1.8 nM in assay [1] (Table 1a) and 3.1 nM in assay [2] (Table 2a).

On to `O=C1NC(COc2ccc3ncc(-c4cc5ccccc5o4)n3n2)CO1` (centres unmarked) [Example I-4, 4-({[3-(1-Benzofuran-2-yl)imidazo[1,2-b]pyridazin-6-yl]oxy}methyl)-1,3-oxazolidin-2-one], for which the IC50 in assay [1] (Table 1a) came out at 5.6 nM; in assay [2] (Table 2a) it was 8.8 nM.

`O=C(N[C@H]1C[C@H](Oc2ccc3ncc(-c4cc5ccccc5o4)n3n2)C1)C1CC1` [Example I-5, N-(trans-3-{[3-(1-Benzofuran-2-yl)imidazo[1,2-b]pyridazin-6-yl]oxy}cyclobutyl)-cyclopropanecarboxamide]: the IC50 in assay [1] (Table 1a) worked out at 5.3 nM; in assay [2] (Table 2a), 8.9 nM.

`CC(C)(C)CC(=O)N1CCC[C@H]1CCOc1ccc2ncc(-c3cc4ccccc4o3)n2n1` [Example I-6, 1-[(2S)-2-(2-{[3-(1-Benzofuran-2-yl)imidazo[1,2-b]pyridazin-6-yl]oxy}ethyl)-pyrrolidin-1-yl]-3,3-dimethylbutan-1-one]: the IC50 in assay [1] (Table 1a) was 3.4 nM; in assay [2] (Table 2a), 9.2 nM.

As for `O=C1CC[C@@H](COc2ccc3ncc(-c4cc5ccccc5o4)n3n2)N1` [Example I-7, (5S)-5-({[3-(1-Benzofuran-2-yl)imidazo[1,2-b]pyridazin-6-yl]oxy}methyl)-pyrrolidin-2-one], the figures for the IC50 in assay [1] (Table 1a) and in assay [2] (Table 2a) were 3.1 nM and 9.2 nM, respectively.

Regarding `O=C1CCCC(COc2ccc3ncc(-c4cc5ccccc5o4)n3n2)N1` (centres unmarked) [Example I-8, 6-({[3-(1-Benzofuran-2-yl)imidazo[1,2-b]pyridazin-6-yl]oxy}methyl)piperidin-2-one], the results for the IC50 in assay [1] (Table 1a) and in assay [2] (Table 2a) were 5.2 nM and 9.3 nM, respectively.

Take `O=C1CC[C@H](COc2ccc3ncc(-c4cc5ccccc5o4)n3n2)N1` [Example I-9, (5R)-5-({[3-(1-Benzofuran-2-yl)imidazo[1,2-b]pyridazin-6-yl]oxy}methyl)-pyrrolidin-2-one]: the results for the IC50 in assay [1] (Table 1a) and in assay [2] (Table 2a) were 3.3 nM and 9.6 nM, respectively.

Regarding `COC(=O)N1CCC[C@H]1CCOc1ccc2ncc(-c3cc4ccccc4o3)n2n1` [Example I-10, Methyl (2S)-2-(2-{[3-(1-benzofuran-2-yl)imidazo[1,2-b]pyridazin-6-yl]oxy}-ethyl)pyrrolidine-1-carboxylate], the IC50 in assay [1] (Table 1a) is 3.2 nM; in assay [2] (Table 2a), 9.9 nM.

For `CC(=O)N[C@H]1C[C@H](Oc2ccc3ncc(-c4cc5ccccc5o4)n3n2)C1` [Example I-11, N-(trans-3-{[3-(1-Benzofuran-2-yl)imidazo[1,2-b]pyridazin-6-yl]oxy}cyclobutyl)-acetamide], the IC50 is 2.9 nM in assay [1] (Table 1a) and 10 nM in assay [2] (Table 2a).

In the case of `COc1cccc2oc(-c3cnc4ccc(OCCN5CCNC5=O)nn34)cc12` [Example I-12, 1-(2-{[3-(4-methoxy-1-benzofuran-2-yl)imidazo[1,2-b]pyridazin-6-yl]oxy}ethyl)-imidazolidin-2-one], the IC50 in assay [1] (Table 1a) came to 3.5 nM; in assay [2] (Table 2a), 10.2 nM.

Consider `COc1ccc2oc(-c3cnc4ccc(OC[C@@H]5CCC(=O)N5)nn34)cc2c1` [Example I-13, (5S)-5-({[3-(5-methoxy-1-benzofuran-2-yl)imidazo[1,2-b]pyridazin-6-yl]oxy}methyl)pyrrolidin-2-one], for which the figures for the IC50 in assay [1] (Table 1a) and in assay [2] (Table 2a) were 3.7 nM and 10.7 nM, respectively.

For the molecule `CC(C)(C)CC(=O)N1CCOC(COc2ccc3ncc(-c4cc5ccccc5o4)n3n2)C1` (centres unmarked) [Example I-14, 1-[2-({[3-(1-Benzofuran-2-yl)imidazo[1,2-b]pyridazin-6-yl]oxy}methyl)-morpholin-4-yl]-3,3-dimethylbutan-1-one], the IC50 in assay [1] (Table 1a) is 5.1 nM; in assay [2] (Table 2a), 10.9 nM.

On to `O=C(NCCOc1ccc2ncc(-c3cc4ccccc4o3)n2n1)C1CC1` [Example I-15, N-(2-{[3-(1-Benzofuran-2-yl)imidazo[1,2-b]pyridazin-6-yl]oxy}ethyl)-cyclopropanecarboxamide], for which the values for the IC50 in assay [1] (Table 1a) and in assay [2] (Table 2a) were 5.6 nM and 12.5 nM, respectively.

`C[C@@H]1CNCCN1c1cccc2oc(-c3cnc4ccc(OC[C@@H]5CCC(=O)N5)nn34)cc12` [II-62, (5S)-5-{[(3-{4-[(2R)-2-methylpiperazin-1-yl]-1-benzofuran-2-yl}imidazo[1,2-b]pyridazin-6-yl)oxy]methyl}pyrrolidin-2-one] returned an IC50 in assay [1] (Table 1b) of 5.1 nM.

For the molecule `C[C@@H]1CNCCN1c1cccc2oc(-c3cnc4ccc(OCC(F)(F)F)nn34)cc12` [II-64, 3-{4-[(2R)-2-methylpiperazin-1-yl]-1-benzofuran-2-yl}-6-(2,2,2-trifluoroethoxy)im-idazo[1,2-b]pyridazine], the IC50 in assay [1] (Table 1b) came out at 9.3 nM. This IC50 lies about 1.8-fold higher than the previous one.

As for `CC1(C)CN(c2cccc3oc(-c4cnc5ccc(O[C@H]6C[C@H](N)C6)nn45)cc23)CCO1` [II-66, trans-3-({3-[4-(2,2-dimethylmorpholin-4-yl)-1-benzofuran-2-yl]imidazo[1,2-b]pyridazin-6-yl}oxy)cyclobutanamine], the midpoint of inhibition in assay [1] (Table 1b), the IC50, lay at 27.3 nM. This IC50 is about 2.9-fold higher than that of the molecule before.
